Source: doi:10.1101/2024.08.25.609621 (bioRxiv, 2024)
Read-outs that look alike come from different tables or passages of the source.

What was measured:
[1] = molecular target: SARS-CoV-2 NSP3 macrodomain (Mac1), P43 crystal form (Severe acute respiratory syndrome coronavirus 2, UniProt P0DTD1); type: binding; conditions: for 1-BDC: PanDDA background density correction; for Total number of conformations: ligand conformations modeled in Mac1 crystal structure; for X-ray crystallography: Binding site: site where the ligand is bound in the X-ray crystal structure; for X-ray crystal structure: X-ray crystal structure determined (TRUE); for Binding site: site of ligand in X-ray crystal structure
[2] = molecular target: SARS-CoV-2 NSP3 macrodomain (Mac1) (Severe acute respiratory syndrome coronavirus 2, UniProt P0DTD1); experiment: biochemical; type: binding; conditions: for Hill slope: HTRF dose-response fit, Mac1; for SARS CoV-2 macrodomain HTRF assay: Hillslope: dose-response fit; for IC50: dose-response, read-out: SARS CoV-2 macrodomain HTRF assay: IC50
[3] = crystal soak, soak concentration 10 mM
[4] = crystal soak, soak concentration 10 mM, TRUE = ligand hit
[5] = occupancy estimate from PanDDA 1-BDC
[6] = crystal soak 10 mM, P43 crystals
[7] = occupancy estimate from PanDDA BDC

For OCC1CC2(CCC2)CN1c1ncnc2[nH]ccc12 (stereo not drawn) [AVI-3728], the 1-BDC [1] was 0.24, the “Pandda run, overall: Modeled” value [1, 3] was “TRUE” and the “Pandda run, overall: Modeling comment” value [1, 3] was “Distal site, weak density, not modeled”. For the same compound, the “Pandda run, overall: Hit” value [1, 4] was “TRUE”, the “Total number of conformations” value [1] was 2 and the “2*(1-BDC) (%)” value [1, 5] was 48%. The “X-ray crystallography: Binding site” value [1] was “Adenosine”, the “PanDDA run, DMSO background map: 1-BDC” value ([1]; soak concentration 10 mM) was 0.24 and the “PanDDA run, DMSO background map: Hit” value ([1]; soak concentration 10 mM) was “TRUE”.

In the case of C[C@@H](O)[C@H](CO)Nc1ncnc2[nH]ccc12.O=C(O)C(F)(F)F [AVI-3730], the 1-BDC [1] is reported as 0.14, the X-ray crystal structure [1] is reported as “TRUE” and the “Pandda run, overall: Modeled” value [1, 3] is reported as “TRUE”. For the same compound, the “Pandda run, overall: Hit” value [1, 4] was “TRUE”, the “Total number of conformations” value [1] was 1 and the “2*(1-BDC) (%)” value [1, 5] was 28%. For the same compound, the Binding site [1] was “Adenosine”, the “PanDDA run, DMSO background map: 1-BDC” value ([1]; soak concentration 10 mM) was 0.14 and the “PanDDA run, DMSO background map: Hit” value ([1]; soak concentration 10 mM) was “TRUE”.

For Cc1nn(C)cc1C1CCC(CO)N1c1ncnc2[nH]ccc12 (stereo not drawn) [AVI-3733], the 1-BDC [1] was 0.1, the “Pandda run, overall: Hit” value [1, 6] was “TRUE” and the “Pandda run, overall: Modeled” value [1, 6] was “TRUE”. For the same compound, the “PanDDA run, DMSO background map: 1-BDC” value ([1]; crystal soak 10 mM) was 0.1, the “PanDDA run, DMSO background map: Hit” value ([1]; crystal soak 10 mM) was “TRUE” and the “Total number of conformations” value [1] was 1. The “2*(1-BDC) (%)” value [1, 5] was 20% and the “X-ray crystallography: Binding site” value [1] was “Adenosine”.

With OCC1CCC2(CCOCC2)CN1c1ncnc2[nH]ccc12 (stereo not drawn) [AVI-4065] the Hill slope [2] was 1.2 and the “SARS CoV-2 macrodomain HTRF assay: Hillslope” value [2] was 1.2.

With Cc1c[nH]c2ncnc(NCC3(O)CC[S+]([O-])CC3)c12 (stereo not drawn) [AVI-4198] the IC50 [2] was > 1000 µM.

For Cc1c[nH]c2ncnc(NCC3(O)CCS(=O)(=O)CC3)c12 [AVI-4199], the IC50 [2] was > 1000 µM.

In the case of OC1(CNc2ncnc3[nH]ccc23)CCC2(CC1)OCCO2 [AVI-4315], the Hill slope [2] is reported as 1.2 and the “SARS CoV-2 macrodomain HTRF assay: Hillslope” value [2] is reported as 1.2.

For O=S1(=O)CCC(O)(CNc2ncnc3[nH]ccc23)CC1 [AVI-4316], the IC50 [2] was > 1000 µM.

CC(Nc1ncnc2[nH]ccc12)C1(O)CCCCC1 (stereo not drawn) [AVI-4321] was tested, and the Hill slope [2] was 1.2 and the “SARS CoV-2 macrodomain HTRF assay: Hillslope” value [2] was 1.2.

For CC(O)C(C)Nc1ncnc2[nH]ccc12 (stereo not drawn) [AVI-5158], the “Occupancy difference (refined_occupancy - 2*(1-BDC))” value [1] was 0, the “Refined ligand occupancy (%)” value [1] was 34% and the “PanDDA run, DMSO background map: 1-BDC” value ([1]; event 1) was 0.17. For the same compound, the 1-BDC [1] was 0.17, the X-ray crystal structure [1] was “TRUE” and the “Total number of conformations” value [1] was 2. For the same compound, the “2*(1-BDC) (%)” value [1, 7] was 34% and the Binding site [1] was “Adenosine”.

CC(C)C1CCCN1c1ncnc2[nH]ccc12 (stereo not drawn) [AVI-5216] was tested, and the “Occupancy difference (refined_occupancy - 2*(1-BDC))” value [1] was 14, the “Refined ligand occupancy (%)” value [1] was 40% and the “PanDDA run, DMSO background map: 1-BDC” value ([1]; event 1) was 0.13. For the same compound, the 1-BDC [1] was 0.13, the “Total number of conformations” value [1] was 1 and the “2*(1-BDC) (%)” value [1, 7] was 26%. For the same compound, the “X-ray crystallography: Binding site” value [1] was “Adenosine”.

With FC(F)(F)C1CCCN1c1ncnc2[nH]ccc12 (stereo not drawn) [AVI-5996] the IC50 [2] was > 1000 µM.
